Data set [1] has as its system dipeptidyl peptidase 4 (DPP4). Particulars: cited from earlier work.
Another data set concerns GLP1 receptor. The conditions noted are these: cited from earlier work.
The target in data set [2] is human GLP1 receptor (CHO-GLP1R cells) (Homo sapiens, UniProt P43220). Nature of the data set: intracellular cAMP response assay, wild type receptor. It is filed as cell-based. The conditions noted are these: EC50 values.
For another data set, the target named is M397L GLP1 receptor (Homo sapiens, UniProt P43220, M397L). Nature of the data set: intracellular cAMP response assay, M397L mutant receptor. Format: cell-based.
The target of data set [3] is GLP1 receptor (CHO-GLP1R cell membranes) (Homo sapiens, UniProt P43220). Description: photoaffinity labeling of wild type receptor by radioiodinated Bpa-NRTFD.

Where no end group is shown, it is not given here.

Results on two compounds are retold here after PMC3248963 (Bioorganic & medicinal chemistry letters, 2011).

Chain of M397L GLP1 receptor (P43220 24-463 M397L): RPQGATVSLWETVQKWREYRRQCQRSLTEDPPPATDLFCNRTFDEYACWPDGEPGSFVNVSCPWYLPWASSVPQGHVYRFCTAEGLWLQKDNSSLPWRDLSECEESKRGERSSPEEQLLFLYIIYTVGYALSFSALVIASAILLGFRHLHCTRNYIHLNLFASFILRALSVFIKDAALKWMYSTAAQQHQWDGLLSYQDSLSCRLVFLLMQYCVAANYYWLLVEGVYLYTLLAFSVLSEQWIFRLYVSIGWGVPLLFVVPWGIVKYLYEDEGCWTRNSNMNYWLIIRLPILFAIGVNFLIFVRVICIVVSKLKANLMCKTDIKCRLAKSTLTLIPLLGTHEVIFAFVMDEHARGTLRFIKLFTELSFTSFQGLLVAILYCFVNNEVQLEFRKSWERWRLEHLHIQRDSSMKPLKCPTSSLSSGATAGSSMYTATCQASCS
Chain of GLP1 receptor (CHO-GLP1R cell membranes) (P43220 24-463): as the sequence (P43220 24-463 M397L) above, with L374M counted along it
Chain of human GLP1 receptor (CHO-GLP1R cells) (P43220 24-463): as the sequence (P43220 24-463 M397L) above, with L374M counted along it

Consider `CC[C@H](C)[C@H](NC(=O)[C@H](Cc1ccccc1)NC(=O)[C@H](CCC(=O)O)NC(=O)[C@H](CCCCN)NC(=O)[C@H](C)NC(=O)[C@H](C)NC(=O)[C@H](CCC(N)=O)NC(=O)CNC(=O)[C@H](CCC(=O)O)NC(=O)[C@H](CC(C)C)NC(=O)[C@H](Cc1ccc(O)cc1)NC(=O)[C@H](CO)NC(=O)[C@H](CO)NC(=O)[C@@H](NC(=O)[C@H](CC(=O)O)NC(=O)[C@H](CO)NC(=O)[C@@H](NC(=O)[C@H](Cc1ccccc1)NC(=O)[C@@H](NC(=O)CNC(=O)[C@H](CCC(=O)O)NC(=O)[C@H](C)NC(=O)[C@@H](N)Cc1c[nH]cn1)[C@@H](C)O)[C@@H](C)O)C(C)C)C(=O)N[C@@H](C)C(=O)N[C@@H](Cc1c[nH]c2ccccc12)C(=O)N[C@@H](CC(C)C)C(=O)N[C@H](C(=O)N[C@@H](CCCCN)C(=O)NCC(=O)N[C@@H](CCCNC(=N)N)C(N)=O)C(C)C` [GLP1], for which the “degradation by DPP4” value in data set [1] is recorded as “rapidly degraded”. Further, in the data set on GLP1 receptor, the “blockade of agonist action by high affinity peptide antagonist” value is “competitively blocked”.

The EC50 is the midpoint of the concentration-response curve. Usually IC50 stands for the midpoint of a concentration-inhibition curve. A high value points to a need for much substance. NRTFD [NRTFD]: the figures for the EC50 (in data set [2]; on M397L GLP1 receptor) were 1.6 ± 0.5 µM and 2.2 ± 0.8 µM, respectively. In addition, the midpoint of inhibition in data set [3], the IC50, lay at 3.1 ± 0.8 µM.
